This note sets out measurements from patent US5977065A, “Bacterial nitroreductase for the reduction of CB1954 and analogues thereof to a cytotoxic form” (Cancer Research Campaign Technology Limited, priority 1991, dated 1999).

The experiment concerns the target T1, E. coli B nitroreductase (Escherichia coli, UniProt P38489).
T1 construct: endogenous in cells; host or cells: E. coli B cell paste; endogenous enzyme purified by Phenyl-Sepharose and Q-Sepharose chromatography, not recombinant
The experiment in a line: Formation of mitomycin C by the nitroreductase upon prodrug VII (HPLC). It counts as biochemical. The conditions noted are these: VII 100 μM, 500 μM NADH, enzyme 5 μg/ml, pH7, 37° C. As to the method: Prodrug VII (100 μM) and cofactor (500 μM NADH) were incubated with enzyme (5 μg/ml E. coli B nitroreductase of Example 1) in 10 mM sodium phosphate buffer (pH7) in air at 37° C. At various times aliquots (10 μl) were injected onto a Partisphere C18 reverse-phase (150×4.7mm) HPLC column and eluted isocratically (2.0 ml/min) with 50% methanol in water. The eluate was continuously monitored for absorption at 260 and 340 nm and the concentration of the drugs calculated by integration of the peak corresponding to the compound on the HPLC trace.

T1 sequence (P38489 whole entry): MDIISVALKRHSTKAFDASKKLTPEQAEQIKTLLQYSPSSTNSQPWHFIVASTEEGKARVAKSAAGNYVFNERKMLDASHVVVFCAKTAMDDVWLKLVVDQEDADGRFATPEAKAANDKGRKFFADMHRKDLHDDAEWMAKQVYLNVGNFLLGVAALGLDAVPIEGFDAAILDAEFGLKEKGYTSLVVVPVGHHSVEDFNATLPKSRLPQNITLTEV

On to `COC12C(COC(N)=O)C3=C(C(=O)C(C)=C(N)C3=O)N1CC1C2N1C(=O)OCc1ccc([N+](=O)[O-])cc1` (stereo not shown) [VII, N-4-Nitrobenzyloxycarbonyl-mitomycin C], for which the “release of mitomycin C from the prodrug” value is on record as “Only in the presence of the enzyme is mitomycin C released”.
